Laboratory results: ChEMBL document CHEMBL1201862, “PubChem BioAssay data set” (2004)
The source made the active and inactive calls.

Columns and labels:
HEK293 = test: optical interference in Abeta FP readout, dose response, artefact control for IDE activator project, biochemical, fluorescence polarization (AID 588442); assay type: functional, cell-based; settings: Homo sapiens
Bcl-2-related protein A1 = target: T1, Bcl-2-related protein A1 (Mus musculus, UniProt Q07440); assay type: functional;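 also: confirmatory dose–response counterscreen on Bfl-1, used to check hits from a UBC13 polyubiquitin inhibitor campaign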
T1 sequence (Q07440 whole entry): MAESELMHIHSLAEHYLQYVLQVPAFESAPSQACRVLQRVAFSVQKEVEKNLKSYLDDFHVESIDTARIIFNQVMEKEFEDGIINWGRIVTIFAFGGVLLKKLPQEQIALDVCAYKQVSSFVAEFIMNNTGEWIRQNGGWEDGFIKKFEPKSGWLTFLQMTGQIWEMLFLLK

Insulin-degrading enzyme [1] = target: T2, Insulin-degrading enzyme (Homo sapiens, UniProt P14735); test: recombinant IDE activation, cell-free – biochemical, fluorescence polarization, counter-screen for IDE activator project, dose response (AID 588681)
T2 sequence (P14735 whole entry): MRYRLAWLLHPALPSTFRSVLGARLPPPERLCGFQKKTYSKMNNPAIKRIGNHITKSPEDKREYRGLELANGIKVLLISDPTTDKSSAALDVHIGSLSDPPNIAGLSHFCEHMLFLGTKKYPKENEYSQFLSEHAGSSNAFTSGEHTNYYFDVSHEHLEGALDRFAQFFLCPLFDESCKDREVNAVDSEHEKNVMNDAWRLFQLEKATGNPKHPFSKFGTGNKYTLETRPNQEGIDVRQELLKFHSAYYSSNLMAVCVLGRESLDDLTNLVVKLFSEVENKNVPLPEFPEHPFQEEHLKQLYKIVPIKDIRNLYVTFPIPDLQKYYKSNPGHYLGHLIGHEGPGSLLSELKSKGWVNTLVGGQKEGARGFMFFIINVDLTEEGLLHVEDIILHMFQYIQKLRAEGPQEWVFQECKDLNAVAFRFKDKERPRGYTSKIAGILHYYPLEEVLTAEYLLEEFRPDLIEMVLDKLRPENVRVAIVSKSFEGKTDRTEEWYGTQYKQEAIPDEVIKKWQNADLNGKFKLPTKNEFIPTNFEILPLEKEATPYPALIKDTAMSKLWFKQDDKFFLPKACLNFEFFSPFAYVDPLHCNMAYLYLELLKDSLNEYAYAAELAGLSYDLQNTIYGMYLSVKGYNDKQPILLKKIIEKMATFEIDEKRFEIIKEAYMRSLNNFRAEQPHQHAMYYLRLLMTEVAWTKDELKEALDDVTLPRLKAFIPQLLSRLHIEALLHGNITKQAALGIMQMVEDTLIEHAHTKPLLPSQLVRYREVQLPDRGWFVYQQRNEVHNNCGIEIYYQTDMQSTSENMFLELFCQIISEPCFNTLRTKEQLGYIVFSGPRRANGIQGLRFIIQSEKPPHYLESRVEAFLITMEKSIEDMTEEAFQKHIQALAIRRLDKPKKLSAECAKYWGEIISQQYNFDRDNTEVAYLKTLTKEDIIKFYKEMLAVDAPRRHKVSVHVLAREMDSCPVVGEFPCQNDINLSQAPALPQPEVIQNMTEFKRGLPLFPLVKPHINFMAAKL

Insulin-degrading enzyme [2] = target: T2, Insulin-degrading enzyme; test: cellular IDE activation of Abeta substrate cleavage – fluorescence polarization, HEK cells, dose response (AID 588439); assay type: functional, cell-based
BJ = test: BJ-TERT-LT-ST fibroblast viability loss – cell-based, RAS-independent, luminescence, dose response (AID 1935); assay type: functional; settings: Homo sapiens;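 also: BJ fibroblasts immortalized with TERT plus LT and ST oncogenes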
[3] = target: 26S proteasome non-ATPase regulatory subunit 14 (Homo sapiens, UniProt O00487); test: inhibition of proteasome subunit RPN11 – biochemical, fluorescence polarization, uHTS hits, confirmation (AID 602368); assay type: functional
[4] = target: 72 kDa type IV collagenase (Homo sapiens, UniProt P08253); test: Dose Response validation of uHTS RPN11 inhibitor hits using a MMP-2 Fluorescence assay.; assay type: functional
cells = assay type: functional, cell-based
[5] = DRD fibroblast viability loss – cell-based, non-viral oncogenic, luminescence, dose response (AID 1934); assay type: functional; settings: Homo sapiens
[6] = target: Platelet-derived growth factor receptor beta (Homo sapiens, UniProt P09619); assay type: functional;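 also: value comes from a kinome panel, with PDGFRB tested as one panel member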
[7] = target: Mitogen-activated protein kinase 14 (Homo sapiens, UniProt Q16539); assay type: functional;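 also: part of a kinome-wide panel, MAPK14 entry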
[8] = target: Serine/threonine-protein kinase 3 (Homo sapiens, UniProt Q13188); assay type: functional;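 also: measured as one member of a kinome-wide kinase panel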
[9] = blockers of HIV-1 ZM109 envelope-driven cell-cell fusion – HeLa effector, CEM target cells, luciferase, cherry-pick, dose response (AID 652058); assay type: functional, cell-based;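 also: luciferase signal from HIV-1 Env mediated cell-cell fusion of effector and target cells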
[10] = blockers of HIV-1 envelope-mediated cell-cell fusion – cherry-pick, dose response (AID 652057); assay type: functional, cell-based
Hexokinase HKDC1 = target: T3, Hexokinase HKDC1 (Homo sapiens, UniProt Q2TB90); test: activation of HKDC1 glucose phosphorylation – biochemical, W721R variant, dose response (AID 504730); assay type: functional
T3 sequence (Q2TB90 whole entry): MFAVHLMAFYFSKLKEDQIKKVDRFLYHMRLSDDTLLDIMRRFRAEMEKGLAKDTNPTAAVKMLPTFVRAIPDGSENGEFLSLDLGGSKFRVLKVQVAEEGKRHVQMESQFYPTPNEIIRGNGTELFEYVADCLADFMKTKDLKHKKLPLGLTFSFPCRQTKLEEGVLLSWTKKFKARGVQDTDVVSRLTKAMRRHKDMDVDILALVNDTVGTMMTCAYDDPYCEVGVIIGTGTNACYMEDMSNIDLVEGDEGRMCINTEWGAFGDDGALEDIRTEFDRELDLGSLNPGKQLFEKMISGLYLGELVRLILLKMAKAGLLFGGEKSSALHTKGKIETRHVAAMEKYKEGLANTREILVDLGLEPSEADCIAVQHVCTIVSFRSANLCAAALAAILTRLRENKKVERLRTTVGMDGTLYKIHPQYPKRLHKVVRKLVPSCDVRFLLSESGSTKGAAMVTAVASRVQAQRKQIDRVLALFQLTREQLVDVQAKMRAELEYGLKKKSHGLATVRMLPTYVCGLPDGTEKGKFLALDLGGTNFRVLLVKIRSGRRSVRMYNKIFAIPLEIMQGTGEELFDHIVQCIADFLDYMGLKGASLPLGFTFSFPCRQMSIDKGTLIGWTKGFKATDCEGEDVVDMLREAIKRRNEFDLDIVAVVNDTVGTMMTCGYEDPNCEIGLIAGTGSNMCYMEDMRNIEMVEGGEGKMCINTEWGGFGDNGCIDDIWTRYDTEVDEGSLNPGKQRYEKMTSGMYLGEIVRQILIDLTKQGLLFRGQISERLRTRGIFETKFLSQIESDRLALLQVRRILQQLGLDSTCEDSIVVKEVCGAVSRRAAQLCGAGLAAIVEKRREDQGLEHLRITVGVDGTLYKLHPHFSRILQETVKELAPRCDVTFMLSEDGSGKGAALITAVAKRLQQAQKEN

Sequence of Platelet-derived growth factor receptor beta (P09619 whole entry): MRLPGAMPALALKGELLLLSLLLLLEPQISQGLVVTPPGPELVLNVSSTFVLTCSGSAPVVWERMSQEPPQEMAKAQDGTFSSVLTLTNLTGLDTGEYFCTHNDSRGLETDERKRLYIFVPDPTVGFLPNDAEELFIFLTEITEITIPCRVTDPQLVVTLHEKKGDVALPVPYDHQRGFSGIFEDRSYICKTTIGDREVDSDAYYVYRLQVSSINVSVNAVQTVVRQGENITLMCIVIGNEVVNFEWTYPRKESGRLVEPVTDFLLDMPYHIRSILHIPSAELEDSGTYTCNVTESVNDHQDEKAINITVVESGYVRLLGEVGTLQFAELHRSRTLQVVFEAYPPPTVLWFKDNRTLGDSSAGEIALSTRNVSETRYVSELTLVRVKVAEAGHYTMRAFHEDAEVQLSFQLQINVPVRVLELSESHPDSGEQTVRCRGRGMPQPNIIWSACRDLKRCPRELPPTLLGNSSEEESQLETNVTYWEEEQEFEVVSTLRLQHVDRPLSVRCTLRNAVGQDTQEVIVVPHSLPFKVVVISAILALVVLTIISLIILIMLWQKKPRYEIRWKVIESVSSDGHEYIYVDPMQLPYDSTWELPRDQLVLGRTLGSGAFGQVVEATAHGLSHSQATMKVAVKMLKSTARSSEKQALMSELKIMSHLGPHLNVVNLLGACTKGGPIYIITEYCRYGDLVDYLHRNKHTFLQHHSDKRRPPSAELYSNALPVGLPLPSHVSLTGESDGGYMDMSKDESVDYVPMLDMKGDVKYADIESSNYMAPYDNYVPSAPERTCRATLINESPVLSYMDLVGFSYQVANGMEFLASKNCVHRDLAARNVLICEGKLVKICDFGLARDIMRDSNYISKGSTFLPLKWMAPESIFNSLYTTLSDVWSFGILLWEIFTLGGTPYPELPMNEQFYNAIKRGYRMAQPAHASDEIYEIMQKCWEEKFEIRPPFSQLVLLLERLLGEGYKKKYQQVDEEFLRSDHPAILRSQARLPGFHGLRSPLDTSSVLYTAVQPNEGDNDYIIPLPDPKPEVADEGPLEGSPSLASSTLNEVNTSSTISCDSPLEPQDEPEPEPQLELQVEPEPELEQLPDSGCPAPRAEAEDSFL
Sequence of Mitogen-activated protein kinase 14 (Q16539 whole entry): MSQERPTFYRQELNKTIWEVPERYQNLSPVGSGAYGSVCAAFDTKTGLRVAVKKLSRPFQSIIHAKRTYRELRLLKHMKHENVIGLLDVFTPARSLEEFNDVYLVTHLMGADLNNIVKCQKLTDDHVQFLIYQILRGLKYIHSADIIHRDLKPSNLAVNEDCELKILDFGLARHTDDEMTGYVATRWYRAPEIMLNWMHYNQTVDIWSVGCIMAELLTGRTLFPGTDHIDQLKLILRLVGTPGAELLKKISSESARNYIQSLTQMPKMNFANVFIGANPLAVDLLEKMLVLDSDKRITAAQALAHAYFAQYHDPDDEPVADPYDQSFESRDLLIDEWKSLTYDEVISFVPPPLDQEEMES
Sequence of 72 kDa type IV collagenase (P08253 whole entry): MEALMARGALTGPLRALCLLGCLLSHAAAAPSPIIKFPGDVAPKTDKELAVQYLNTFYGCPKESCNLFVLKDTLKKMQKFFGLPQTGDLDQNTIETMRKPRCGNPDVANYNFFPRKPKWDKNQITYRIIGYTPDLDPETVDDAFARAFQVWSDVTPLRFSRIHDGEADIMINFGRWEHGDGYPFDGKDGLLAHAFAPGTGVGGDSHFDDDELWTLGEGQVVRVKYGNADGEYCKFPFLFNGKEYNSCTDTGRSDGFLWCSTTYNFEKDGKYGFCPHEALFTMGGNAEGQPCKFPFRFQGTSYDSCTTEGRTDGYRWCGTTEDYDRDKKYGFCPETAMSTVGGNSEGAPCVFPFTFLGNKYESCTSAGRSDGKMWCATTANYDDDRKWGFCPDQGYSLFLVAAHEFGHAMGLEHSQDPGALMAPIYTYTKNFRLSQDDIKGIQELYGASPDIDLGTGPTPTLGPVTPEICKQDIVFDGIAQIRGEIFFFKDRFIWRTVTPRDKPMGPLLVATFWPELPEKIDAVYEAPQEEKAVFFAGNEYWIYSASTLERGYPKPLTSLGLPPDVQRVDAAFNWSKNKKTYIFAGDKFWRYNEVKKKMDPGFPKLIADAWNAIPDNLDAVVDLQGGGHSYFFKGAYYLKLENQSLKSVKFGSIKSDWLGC
Sequence of 26S proteasome non-ATPase regulatory subunit 14 (O00487 whole entry): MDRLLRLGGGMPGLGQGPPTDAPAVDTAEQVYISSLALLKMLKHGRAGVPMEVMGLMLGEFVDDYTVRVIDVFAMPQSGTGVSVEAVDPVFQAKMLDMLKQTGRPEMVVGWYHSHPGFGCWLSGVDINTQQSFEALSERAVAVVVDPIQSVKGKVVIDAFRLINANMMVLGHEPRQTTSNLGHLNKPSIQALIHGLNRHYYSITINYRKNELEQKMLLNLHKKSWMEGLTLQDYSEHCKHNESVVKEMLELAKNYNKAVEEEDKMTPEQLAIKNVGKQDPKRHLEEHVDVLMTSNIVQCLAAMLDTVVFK
Sequence of Serine/threonine-protein kinase 3 (Q13188 whole entry, the tested form may be a part): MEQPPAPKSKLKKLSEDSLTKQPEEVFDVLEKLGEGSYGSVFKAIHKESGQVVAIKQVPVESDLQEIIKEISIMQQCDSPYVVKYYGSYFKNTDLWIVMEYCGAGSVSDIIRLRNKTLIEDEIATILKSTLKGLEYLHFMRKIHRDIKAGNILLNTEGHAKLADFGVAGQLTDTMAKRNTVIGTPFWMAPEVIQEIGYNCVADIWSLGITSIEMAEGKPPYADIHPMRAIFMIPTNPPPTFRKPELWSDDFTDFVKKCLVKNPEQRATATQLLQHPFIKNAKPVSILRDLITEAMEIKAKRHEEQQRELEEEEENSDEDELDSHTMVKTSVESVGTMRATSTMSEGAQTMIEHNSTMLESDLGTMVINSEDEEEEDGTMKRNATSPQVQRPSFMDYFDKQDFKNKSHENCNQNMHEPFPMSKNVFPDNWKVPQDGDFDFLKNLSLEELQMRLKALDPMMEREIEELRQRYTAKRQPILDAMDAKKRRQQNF

CNC[C@H](Cc1ccccc1)NC[C@@H](Cc1cccc2ccccc12)NCCc1ccc(C)cc1
EC50 (HEK293): > 54.7 µM (inactive) | IC50 (Bcl-2-related protein A1): > 20 µM (inactive) | EC50 (Insulin-degrading enzyme [1]): > 54.7 µM (inactive) | EC50 (Insulin-degrading enzyme [2]): 7.52 µM (active)

O=C(N/N=C/c1c(O)ccc2ccccc12)c1[nH]ncc1Br
EC50 (BJ): 10.5 µM (active) | IC50 [3]: 24 µM (active) | IC50 [4]: > 100 µM (inactive) | EC50 (cells): 7.76 µM (active) | EC50 [5]: 3.04 µM (active)

Nc1c(-c2ccc(NC(=O)Nc3cccc(C(F)(F)F)c3)cc2)cnc2c(-c3ccc4c(c3)OCO4)cnn12
Ki [6]: 0.00794 µM (active) | Ki [7]: > 3.98 µM (inactive)

O=C(Nc1cc(-c2c[nH]c3ncccc23)cc(Cl)n1)c1ccccc1
Ki [8]: > 3.16 µM (inactive)

CCN1C(=Cc2sc3ccccc3[n+]2C)C=Cc2cccc(C)c21
AC50 [9]: 7.58 µM (active) | AC50 [10]: 1.86 µM (active) | EC50 (Hexokinase HKDC1): > 80 µM (inactive)
